Reference: PMC9180621, “Preparation of Novel Pyrazolo[4,3-e]tetrazolo[1,5-b][1,2,4]triazine Sulfonamides and Their Experimental and Computational Biological Studies” (International Journal of Molecular Sciences, 2022)

Columns and labels:
[1] = tested on: PC-3 cells; experiment: MTT assay, cell viability; type: cell-based, human; conditions: Homo sapiens; PC-3, 72 h incubation, MTT, ± SD
Description: (§1) A statistical program (Graphpad Prism 7) was used to analyze obtained data (MTT test). The dose–response analysis was performed to estimate the inhibitory concentration (IC50) of the tested compounds. The IC50 value is defined as a concentration of the tested compound that leads to a reduction in cell pool viability by 50% compared to the negative control (accepted as 100%). % cell viability=Absorbance value of treated cells−Absorbance value of blank/Absorbance value of untreated cells−Absorbance value of blank×100%
(§2) To estimate cell viability following 72 h incubation with the tested MM-compounds (MM134, MM136, MM137, and MM139), the MTT test was used according to the PN-EN ISO 10993-5. It is a quantitative method based on the tetrazolium yellow dye MTT [3(4,5-dimethyl-2-thiazolyl)-2,5-diphenyl-2H-tetrazolium bromide], which is converted by living cells to a purple product, formazan, the concentration of which was measured colorimetrically. The MTT assay was performed according to the procedure described by Mosmann with modifications. At a density of approximately 8 × 10^3 cells per 100 µL/well, 96-well plates were seeded. Following the given incubation period in controlled conditions (37 °C; 5% CO2), cells were exposed to different concentrations of tested compounds in DMSO (range 0.05–3 µM) in a volume of 100 µL medium per well. Final solvent concentration of DMSO was < 0.5% v/v. The experimental design included vehicle controls and blanks (wells without cells).
(§3) After 72 h of incubation of cells with tested MM-compounds, 20 µL of MTT tetrazolium salt (5 mg/mL in PBS) was added to each well, and plates were incubated once again in a humidified atmosphere for 3 h (37 °C; 5% CO2). Following the incubation time, the solutions were removed and 100 µL of DMSO was added to dissolve the formazan complexes. Subsequently, a spectrophotometer (microplate reader Power Wave XS BioTek Instruments, Inc., Winooski, VT, USA) reading was performed at 570 nm. The experiments were performed in duplicates.

[2] = tested on: PC-3 cells; experiment: MitoTracker Red, mitochondria membrane potential; type: cell-based, human
Description: (§4) The fitness of the mitochondria and changes in MMP were assessed using MitoTracker Red. Data for experimental groups were presented as mean percentage of control group fluorescence intensity ± SD value (Figure 11, Table 2). Mitotracker Red is deposited in the mitochondrial matrix in response to changes in the inner transmembrane potential of the mitochondria. The intensity of fluorescence reflects the fitness of the mitochondria and alters with changes in MMP [91]. BxPC-3 and PC-3 cells were seeded at appropriate density on a 96-well plates (Table 9). […] After appropriate incubation time, cells were incubated with MitoTracker Red (0.1 µM/200 µL PBS/well) for 40 min. Afterward, MitoTracker Red solution was removed from the wells and PBS (200 µL/well) was added. Fluorescence was read at an […] of 581/644 nm using the SpectraMax® i3x Multi-Mode Detection Platform.

[3] = tested on: BxPC-3 cells; experiment: MitoTracker Red, mitochondria membrane potential; type: cell-based, human
Description: as §4

[4] = tested on: HCT-116 cells; experiment: MTT assay, cell viability; type: cell-based; conditions: Homo sapiens, HCT-116, 72 h incubation, ± SD
Description: as §1, §2, §3

[5] = tested on: WI-38 cells; experiment: MTT assay, cell viability; type: cell-based; conditions: WI-38 normal human fibroblasts, 72 h incubation, ± SD
Description: as §1, §2, §3

[6] = tested on: L929 cells; experiment: MTT assay, cell viability; type: cell-based; conditions: L929 normal mouse fibroblasts, 72 h incubation, ± SD
Description: as §1, §2, §3

[7] = tested on: BxPC-3 cells; experiment: MTT assay, cell viability; type: cell-based; conditions: Homo sapiens, BxPC-3, 72 h incubation, ± SD
Description: as §1, §2, §3

[8] = tested on: BxPC-3 cells; experiment: Annexin V-FITC/propidium iodide flow cytometry, apoptosis; type: cell-based, human; conditions: IC50 concentration, Annexin V-FITC, ± SD
Description: Data are presented as mean percentage of apoptotic cells (early and late apoptotic) ± SD values. The differences between the experimental samples and vehicle control were evaluated by the ANOVA test followed by Tukey’s test (p < 0.05). Experiments were performed in triplicate. For flow cytometry analysis with Annexin V-FITC staining, the approximate number of analyzed cells was (N = 1 × 10^4), contrasting with the dual acridine orange/ethidium bromide (AO/EB) fluorescent staining (N = 200).
The Annexin V-FITC Apoptosis Detection Kit was used to estimate the apoptosis induction following 24 and 48 h incubation with the tested MM-compounds. During apoptosis, phosphatidylserine is transformed from the inner cell membrane to the cell surface, which can be detected by the annexin-FITC complex. The addition of propidium iodide to the reaction mixture allows the assessment of cell membrane integrity. Using flow cytometry analysis, four subpopulations of cells can be distinguished: alive (non-stained), necrotic (propidium iodide stained), early apoptotic (annexin V stained cells), or late-apoptotic cells (propidium iodide and annexin V stained). BxPC-3 and PC-3 cells were seeded at appropriate density on a 6-well plate (Table 9).
The experimental design included vehicle control (final solvent concentration was < 0.5% v/v DMSO), and cells treated with 2 µM SN-38 (active metabolite of irinotecan) used as a positive compensation control. Cells were left for incubation for another 24 or 48 h (37 °C; 5% CO2). After exposure, cells were trypsinized and transferred to cytometric tubes, left for 40 min, and centrifuged at 1400 rpm for 10 min at 4 °C. Afterward, the supernatant was removed, and the precipitate was diluted in 1 mL of PBS. The rest of the procedure was performed according to the manufacturer’s instructions. The results were obtained from three independent experiments.

[9] = tested on: PC-3 cells; experiment: Dual acridine orange/ethidium bromide (AO/EB) fluorescent staining, apoptosis; type: cell-based, human; conditions: PC-3, 48 h incubation, 2xIC50 concentration, AO/EB, ± SD; control 1.5 ± 0.7%
Description: (§5) Data are presented as mean percentage of apoptotic cells (early and late apoptotic) ± SD values. The differences between the experimental samples and vehicle control were evaluated by the ANOVA test followed by Tukey’s test (p < 0.05). Experiments were performed in triplicate. For flow cytometry analysis with Annexin V-FITC staining, the approximate number of analyzed cells was (N = 1 × 10^4), contrasting with the dual acridine orange/ethidium bromide (AO/EB) fluorescent staining (N = 200). Acridine orange/ethidium bromide (AO/EB) staining is used to detect nuclear alterations and the development of apoptotic bodies, which are both indicative of apoptosis. Acridine orange penetrates into living cells, emitting green fluorescence after intercalation into DNA. The second dye, ethidium bromide, emits red fluorescence in cells with an altered cell membrane. The cells are divided into three categories as follows: living cells (green nucleus with red orange cytoplasm); apoptotic (green irregularly nuclei with chromatin condensation or fragmentation); and necrotic cells (uniformly orange-stained cell nuclei). Programmed cell death is measured by counting the number of cells that undergo apoptosis under a fluorescent microscope. BxPC-3 and PC-3 cells were seeded at an appropriate density on 12-well plates (Table 9). […] Following the incubation period, cells were incubated with fluorochromes (AO/EB: 100 µM; 1:1, v/v) for 5 min at 37 °C in the dark. Viable, apoptotic, or necrotic cells were distinguished using this method based on differential uptake of fluorescent DNA-binding dyes (AO/EB) with the structural aspect of chromatin condensation in the stained nucleus. Cells were analyzed using a fluorescence microscope (Olympus BX60 F5 Olympus Optical Co., Ltd., Nagano, Japan) at 360 nm. The results were obtained from three independent experiments.

[10] = tested on: BxPC-3 cells; experiment: as above; type: cell-based, human; conditions: BxPC-3, IC50 concentration, 24 h incubation
Description: as §5

Q: How did the IC50 [1] turn out when `Cc1nn(-c2ccc(S(=O)(=O)N3CCOCC3)cc2)c2nn3nnnc3nc12` [MM136] was run?
A: 130 ± 10 nM

Q: What about the “mean percentage of control group fluorescence intensity (MMP)” value (“mean percentage … (MMP)” for short) ([2]; PC-3, 24 h incubation, 0.5IC50, ± SD) of the same compound?
A: 96.3 ± 5.74%

Q: And the “mean percentage … (MMP)” value ([2]; PC-3, 24 h incubation, 2xIC50, ± SD)?
A: 86.9 ± 7.22%

Q: And the “mean percentage … (MMP)” value ([2]; PC-3, 24 h incubation, IC50, ± SD)?
A: 92.78 ± 0.9%

Q: What about the “mean percentage … (MMP)” value ([2]; PC-3, 48 h incubation, 0.5IC50, ± SD) of the same compound?
A: 81.34 ± 0.4%

Q: What about the “mean percentage … (MMP)” value ([2]; PC-3, 48 h incubation, 2xIC50, ± SD) of the same compound?
A: 47.38 ± 2.74%

Q: What about the “mean percentage … (MMP)” value ([2]; PC-3, 48 h incubation, IC50, ± SD) of the same compound?
A: 61.24 ± 3.62%

Q: What about the “mean percentage … (MMP)” value ([3]; BxPC-3, 24 h incubation, 0.5IC50, ± SD) of the same compound?
A: 82.83 ± 13.02%

Q: What about the “mean percentage … (MMP)” value ([3]; BxPC-3, 24 h incubation, 2xIC50, ± SD) of the same compound?
A: 57.67 ± 5.56%

Q: And the “mean percentage … (MMP)” value ([3]; BxPC-3, 24 h incubation, IC50, ± SD)?
A: 65.68 ± 4.58%

Q: What about the “mean percentage … (MMP)” value ([3]; BxPC-3, 48 h incubation, 0.5IC50, ± SD) of the same compound?
A: 69.08 ± 4.40%

Q: What about the “mean percentage … (MMP)” value ([3]; BxPC-3, 48 h incubation, 2xIC50, ± SD) of the same compound?
A: 61.83 ± 0.46%

Q: What about the “mean percentage … (MMP)” value ([3]; BxPC-3, 48 h incubation, IC50, ± SD) of the same compound?
A: 62.37 ± 0.05%

Q: What about the IC50 [4] of the same compound?
A: 250 ± 70 nM

Q: And the IC50 [5]?
A: 480 ± 90 nM

Q: And the IC50 [6]?
A: 220 ± 80 nM

Q: What about the IC50 [7] of the same compound?
A: 250 ± 80 nM

Q: What about the “mean percentage of apoptotic cells (early and late apoptotic)” value ([8]; BxPC-3, 24 h incubation, control 10.3 ± 2.09%) of the same compound?
A: 41.7 ± 0.17%

Q: What about the “mean percentage of apoptotic cells (early and late apoptotic)” value ([8]; BxPC-3, 48 h incubation, control 8.3 ± 1.13%) of the same compound?
A: 56.33 ± 4.96%

Q: What about the “mean % of apoptotic cells” value [9] of the same compound?
A: 14.5 ± 0.7%

Q: What about the “increase in apoptotic fraction” value [10] of the same compound?
A: did not induce a significant increase
